# Test results: patent US6395773B1, “Anti-drug resistant strain agents and antichlamydia agents” (Japan Science and Technology Corporation, priority 1999, dated 2002)
# Assays:
# [1] = test system: methicillin-sensitive Staphylococcus aureus (MSSA); assay: Effect on decreasing antibiotic resistance by concomitant use of FNQ3, MSSA; conditions: for MIC: Staphylococcus aureus, 24 h, read-out: MIC of antibiotic, −FNQ3; for MIC of antibiotic, +FNQ3: concomitant FNQ3, final concentration 0.5 μg/ml
# [2] = test system: methicillin-resistant Staphylococcus aureus (MRSA); assay: Effect on decreasing antibiotic resistance by concomitant use of FNQ3, MRSA; conditions: for MIC: Staphylococcus aureus, 24 h, read-out: MIC of antibiotic, −FNQ3; for MIC of antibiotic, +FNQ3: concomitant FNQ3, final concentration 0.5 μg/ml; for decrease of the resistance of MRSA against the antibiotic (fraction of MIC): with the Compound (FNQ3) 0.5 μg/ml
# [3] = test system: fluconazole-resistant Candida albicans (FRCA); assay: Proliferation inhibitory test for Candida albicans (agar medium MIC), FRCA; conditions: for MIC: Candida albicans
# [4] = test system: fluconazole-sensitive Candida albicans (FSCA); assay: Proliferation inhibitory test for Candida albicans (agar medium MIC), FSCA
# [5] = test system: all tested strains of Chlamydia; assay type: cell-based; conditions: tendency; McCoy and WI38 versus HeLa229
# C. trachomatis = assay: microbe, parasite or virus in culture; assay type: cell-based; conditions: Chlamydia trachomatis
# C. psittaci = assay: microbe, parasite or virus in culture; assay type: cell-based; conditions: Chlamydia psittaci, strain Cal 10
# C. pneumoniae = assay: microbe, parasite or virus in culture; assay type: cell-based; conditions: Chlamydia pneumoniae
# Staphylococcus aureus = assay: FNQ3 alone, growth of Staphylococcus aureus; conditions: 0.5 μg/ml
# [6] = test system: methicillin-sensitive Staphylococcus aureus (MSSA); assay: Proliferation inhibitory test for Staphylococcus aureus (agar medium MIC), MSSA; conditions: for MIC: Staphylococcus aureus, MSSA
# [7] = test system: methicillin-resistant Staphylococcus aureus (MRSA); assay: Proliferation inhibitory test for Staphylococcus aureus (agar medium MIC), MRSA; conditions: for MIC: Staphylococcus aureus, MRSA
structure (smiles),measurement,setting,value
CC1(C)S[C@@H]2[C@H](NC(=O)[C@H](N)c3ccccc3)C(=O)N2[C@H]1C(=O)O [Ampicillin],MIC,[1],32 µg/mL
same,"MIC of antibiotic, +FNQ3",[1],16 to 32 µg/mL
same,MIC,[2],32 µg/mL
same,"MIC of antibiotic, +FNQ3",[2],4 µg/mL
same,decrease of the resistance of MRSA against the antibiotic (fraction of MIC),[2],½ to ¼
CN(C)CCn1nnnc1SCC1=C(C(=O)O)N2C(=O)[C@@H](NC(=O)Cc3csc(N)n3)[C@H]2SC1 [Cefotiam],MIC,[1],0.25 to 0.5 µg/mL
same,"MIC of antibiotic, +FNQ3",[1],0.25 µg/mL
same,MIC,[2],32 µg/mL
same,"MIC of antibiotic, +FNQ3",[2],16 to 32 µg/mL
CC[C@H]1OC(=O)[C@H](C)[C@@H](O[C@H]2C[C@@](C)(OC)[C@@H](O)[C@H](C)O2)[C@H](C)[C@@H](O[C@@H]2O[C@H](C)C[C@H](N(C)C)[C@H]2O)[C@](C)(OC)C[C@@H](C)C(=O)[C@H](C)[C@@H](O)[C@]1(C)O [Clarithromycin],MIC,[1],0.5 µg/mL
same,"MIC of antibiotic, +FNQ3",[1],0.5 to 1 µg/mL
same,MIC,[2],16 µg/mL
same,"MIC of antibiotic, +FNQ3",[2],16 µg/mL
"OC(Cn1cncn1)(Cn1cncn1)c1ccc(F)cc1F [FLCZ, fluconazole, reference compound]",MIC,[3]; FRCA strain CA383,> 64 µg/mL
same,MIC,[3]; FRCA strain CA8941,> 64 µg/mL
same,MIC,[3]; FRCA strain DUNC136,> 64 µg/mL
same,MIC,[3]; FRCA strain MCV7,32 µg/mL
same,MIC,[3]; FRCA strain S78941,> 64 µg/mL
same,MIC,[3]; FRCA strain T77042,> 64 µg/mL
same,MIC,[4]; Candida albicans,0.03 µg/mL
same,MIC,"[4]; Candida albicans, TIMM0239",0.13 µg/mL
same,MIC,"[4]; Candida albicans, TIMM1756",0.06 µg/mL
same,MIC,"[4]; Candida albicans, TIMM1850",0.06 µg/mL
same,MIC,[4]; FSCA strain TA,0.03 µg/mL
"Cc1cc2c(o1)C(=O)c1ccccc1C2=O [FNQ3, 2-methylnaphtho[2,3-b]furan-4,9-dione]",MIC with McCoy and WI38 cells relative to HeLa229 cells,[5],approximately ½
same,MIC,"C. trachomatis; strain D, HeLa229 cells",1 µg/mL
same,MIC,"C. trachomatis; strain F, HeLa229 cells",1 µg/mL
same,MIC,"C. trachomatis; strain L2, HeLa229 cells",1 µg/mL
same,MIC,"C. trachomatis; strain L2, McCoy cells",0.6 µg/mL
same,MIC,"C. trachomatis; strain L2, WI 38 cells",0.5 µg/mL
same,MIC,C. psittaci; HeLa229 cells,1 µg/mL
same,MIC,C. psittaci; McCoy cells,0.5 µg/mL
same,MIC,C. psittaci; WI 38 cells,0.25 µg/mL
same,MIC,"C. pneumoniae; strain KKpn-1, HeLa229 cells",0.25 µg/mL
same,MIC,"C. pneumoniae; strain KKpn-1, McCoy cells",0.25 µg/mL
same,MIC,"C. pneumoniae; strain TW-183, HeLa229 cells",0.6 µg/mL
same,influence on the growth of Staphylococcus aureus,Staphylococcus aureus,no influence on the growth
"Cc1cc2c(o1)C(=O)c1c(O)cccc1C2=O [FNQ13, 8-hydroxy-2-methylnaphtho[2,3-b]furan-4,9-dione]",MIC,[6]; MSSA strain 1 (Patient),25 µg/mL
same,MIC,[6]; MSSA strain 2 (Patient),6.25 µg/mL
same,MIC,[6]; MSSA strain 3 (Patient),12.5 µg/mL
same,MIC,[6]; MSSA strain 4 (Patient),12.5 µg/mL
same,MIC,[6]; MSSA strain 5 (Patient),12.5 µg/mL
same,MIC,[6]; MSSA strain 6 (Patient),6.25 µg/mL
same,MIC,[6]; MSSA strain 7 (Patient),6.25 µg/mL
same,MIC,[6]; MSSA strain 8 (Patient),12.5 µg/mL
same,MIC,[6]; MSSA strain 9 (Patient),12.5 µg/mL
same,MIC,[6]; MSSA strain 10 (Patient),12.5 µg/mL
same,MIC,[6]; MSSA strain 11 (Patient),12.5 µg/mL
same,MIC,[6]; MSSA strain 12 (1840),12.5 µg/mL
same,MIC,"[6]; read-out: MIC, Mean ± standard deviation, mean over 12 MSSA strains, p < 0.01",12 µg/mL
same,"MIC, Mean ± standard deviation","[6]; mean over 12 MSSA strains, p < 0.01",11.98 ± 4.9 µg/mL
same,MIC,[3]; FRCA strain CA383,2 µg/mL
same,MIC,[3]; FRCA strain CA8941,8 µg/mL
same,MIC,[3]; FRCA strain DUNC136,4 µg/mL
same,MIC,[3]; FRCA strain MCV7,2 µg/mL
same,MIC,[3]; FRCA strain S78941,4 µg/mL
same,MIC,[3]; FRCA strain T77042,2 µg/mL
same,antibacterial activity against FRCA compared with FSCA,[3]; FRCA (resistant strain) versus FSCA (sensitive strain),same degree of antibacterial activity
same,MIC,[4]; Candida albicans,4 µg/mL
same,MIC,"[4]; Candida albicans, TIMM0239",2 µg/mL
same,MIC,"[4]; Candida albicans, TIMM1756",2 µg/mL
same,MIC,"[4]; Candida albicans, TIMM1850",2 µg/mL
same,MIC,[4]; FSCA strain TA,4 µg/mL
same,MIC,[7]; MRSA strain 1 (Patient),6.25 µg/mL
same,MIC,[7]; MRSA strain 2 (Patient),3.13 µg/mL
same,MIC,[7]; MRSA strain 3 (Patient),3.13 µg/mL
same,MIC,[7]; MRSA strain 4 (Patient),12.5 µg/mL
same,MIC,[7]; MRSA strain 5 (Patient),12.5 µg/mL
same,MIC,[7]; MRSA strain 6 (Patient),3.13 µg/mL
same,MIC,[7]; MRSA strain 7 (Patient),6.25 µg/mL
same,MIC,[7]; MRSA strain 8 (Patient),3.13 µg/mL
same,MIC,[7]; MRSA strain 9 (Patient),6.25 µg/mL
same,MIC,[7]; MRSA strain 10 (Patient),3.13 µg/mL
same,MIC,[7]; MRSA strain 11 (Patient),6.25 µg/mL
same,MIC,[7]; MRSA strain 12 (N133),1.56 µg/mL
same,MIC,[7]; MRSA strain 13 (OF4),1.56 µg/mL
same,MIC,[7]; MRSA strain 14 (N295),6.25 µg/mL
same,MIC,"[7]; read-out: MIC, Mean ± standard deviation, mean over 14 MRSA strains",5.36 µg/mL
same,"MIC, Mean ± standard deviation",[7]; mean over 14 MRSA strains,5.36 ± 3.5 µg/mL
C[C@H]1COc2c(N3CCN(C)CC3)c(F)cc3c(=O)c(C(=O)O)cn1c23 [Levofloxacin],MIC,[1],0.25 µg/mL
same,"MIC of antibiotic, +FNQ3",[1],0.25 µg/mL
same,MIC,[2],8 µg/mL
same,"MIC of antibiotic, +FNQ3",[2],4 µg/mL
CN(C)c1ccc(O)c2c1C[C@H]1C[C@H]3[C@H](N(C)C)C(O)=C(C(N)=O)C(=O)[C@@]3(O)C(O)=C1C2=O [Minacycline],MIC,[1],0.25 µg/mL
same,"MIC of antibiotic, +FNQ3",[1],0.25 µg/mL
same,MIC,[2],8 µg/mL
same,"MIC of antibiotic, +FNQ3",[2],2 to 4 µg/mL
CC[C@H]1OC(=O)[C@H](C)[C@@H](O[C@H]2C[C@@](C)(OC)[C@@H](O)[C@H](C)O2)[C@H](C)[C@@H](O[C@@H]2O[C@H](C)C[C@H](N(C)C)[C@H]2O)[C@](C)(O)C[C@@H](C)/C(=N\OCOCCOC)[C@H](C)[C@@H](O)[C@]1(C)O [Roxithromycin],MIC,[1],1 µg/mL
same,"MIC of antibiotic, +FNQ3",[1],1 µg/mL
same,MIC,[2],16 µg/mL
same,"MIC of antibiotic, +FNQ3",[2],16 µg/mL
CN[C@H](CC(C)C)C(=O)N[C@H]1C(=O)N[C@@H](CC(N)=O)C(=O)N[C@H]2C(=O)N[C@H]3C(=O)N[C@H](C(=O)N[C@H](C(=O)O)c4cc(O)cc(O)c4-c4cc3ccc4O)[C@H](O)c3ccc(c(Cl)c3)Oc3cc2cc(c3O[C@@H]2O[C@H](CO)[C@@H](O)[C@H](O)[C@H]2O[C@H]2C[C@](C)(N)[C@H](O)[C@H](C)O2)Oc2ccc(cc2Cl)[C@H]1O [Vancomycin],MIC,[1],0.6 µg/mL
same,"MIC of antibiotic, +FNQ3",[1],0.6 µg/mL
same,MIC,[2],2.5 µg/mL
same,"MIC of antibiotic, +FNQ3",[2],0.6 to 1.25 µg/mL
same,decrease of the resistance of MRSA against the antibiotic (fraction of MIC),[2],½ to ¼
N[C@@H](C(=O)N[C@@H]1C(=O)N2C(C(=O)O)=C(Cl)CS[C@H]12)c1ccccc1 [cefaclor],MIC,[1],1 µg/mL
same,"MIC of antibiotic, +FNQ3",[1],1 µg/mL
same,MIC,[2],64 µg/mL
same,"MIC of antibiotic, +FNQ3",[2],16 µg/mL
same,decrease of the resistance of MRSA against the antibiotic (fraction of MIC),[2],½ to ¼
